Patent publication US20250127896A1, “CHIMERIC TIM4 RECEPTORS AND USES THEREOF” (CERO THERAPEUTICS HOLDINGS, INC., priority 2021, published 2025)

How the values were obtained:
E7 TCR T cells = test: APC-like function: E7 peptide-pulsed CER T cells co-cultured with E7 TCR T cells (activation markers, CT Violet proliferation); type: cell-based
Procedure: FIG. 1A: a schematic of pCTX247 (also referred to herein as CER247) and pCTX1107 (also referred to herein as CER1107 or CER1236) chimeric Tim4 receptors and pCTX1107 T cells pulsed with E7 peptides and co-cultured with E7-specific T cells to evaluate their antigen presentation capacity. FIG. 1B: E7-specific proliferation responses were measured by CT Violet dye dilution after 6 days in the presence of autologous CER-T (TLR containing or non-containing CERs) pulsed with E7 peptides. […] All data collected by FACS. Cell tracing show E7 TCR-T cells using an anti-mouse TCRb. E7 TCR-T cells were labeled with CT Violet at the time of co-culture. FIG. 1D: Percentage of proliferated E7 TCR cells in culture among live CD3+ cells determined by flow cytometry based on staining of cell trace violet low E7 TCRb+ cells.
FIG. 2: T cells containing chimeric Tim4 receptors with a TLR intracellular signaling domain added to the CD3ζ signaling domain (and optionally a CD28 signaling domain) are strong stimulators of autologous E7-specific T cell responses. CER-T cells were pulsed with E7 peptide and tested for their capacity to trigger an autologous E7-specific T cell response. CD25, a T cell activation marker, was evaluated on E7 TCR-T cells, 24 hours after CER-T cells were pulsed with E7 peptides. […]

[1] = tested on: JeKo-1 MCL mCherry+ cells; test: IFN-γ secretion of CER1236 T cells co-cultured with ibrutinib-treated JeKo-1 cells (ELLA); type: cell-based; settings: JeKo-1 pretreated 20 μM Ibrutinib 48 h, co-culture 0.5 μM Ibrutinib, 120 h
Procedure: After 120 h, IFN-γ secretion was measured using ELLA automated ELISA.

NSCLC H1975 cells = test: Cytokine production by CER1236 T cells co-cultured with H1975 cells and osimertinib (Ella); type: cell-based; settings: 96 h, E:T 1:4, vs vehicle and untransduced T cells
Procedure: FIG. 40: Graphs showing cytokine production by CER1236 T cells co-cultured with NSCLC H1975 cells with 100 nM osimertinib or vehicle (left to right: granzyme B, TNFα, IL-6, and IFNγ).
Cytokine production was also measured in CER1236 T cells co-cultured with H1975 NSCLC cells pre-treated with osimertinib or vehicle. Ten-thousand NSCLC H1975 cells were cultured for 24 h with 100 nM Osimertinib or vehicle (DMSO) and then co-cultured with CER T cells for 96 h at an E:T of 1:4 in the presence or absence of 4.88 nM Osimertinib or vehicle. Effector:Target ratio was 1:4, and H1975 cells were plated at 10,000 cells/well. Cytokine production was determined by Ella assay.

Jeko1 TMEM30A−/− cells = settings: mantle cell lymphoma mouse model
Procedure: Using an engineered TMEM30a phospholipid flippase knockout JeKo-1 lymphoma cell line with constitutive phosphatidylserine exposure (JeKo-1 PS^+), tumor fragment uptake, cytotoxicity, cytokine secretion (GrB, IFN-γ, and TNF-α), and APC-like activity were evaluated in vitro. JeKo-1 PS^+ cells were labeled with the pH-sensitive pHrodo™ dye to quantify the uptake of tumor cells. Chimeric Tim4 receptor-T cells were tested for antigen-display capacity by evaluating autologous HPV E7 TCR T cell activation and proliferation following Chimeric Tim4 receptor-T cell co-culture with JeKo PS+ cells and HPV-derived peptides. Finally, Chimeric Tim4 receptor T cell anti-tumor activity was examined in xenografted MCL models. Statistical analysis was performed using 2-way ANOVA.

REC-1 cells = test: Phagocytosis of pHrodo-labeled ibrutinib-treated REC-1 cells by CER T cells; type: cell-based
Source text: FIG. 13A: Representative flow cytometry histograms showing engulfment of pHrodo red-labeled REC-1 target cells by CER1234, CER1161, and CER1183 T cells. FIG. 13B: Graphical summary of flow cytometry data showing engulfment of pHrodo red-labeled REC-1 target cells by CER1234, CER1161, and CER1183 T cells. * P<0.01, ** P<0.001, *** P<0.0001; mean+SD, n=4. FIG. 13C: Representative fluorescence microscopy images (at 40×) showing engulfment of pHrodo red-labeled REC-1 target cells by CER1234, CER1161, and CER1183 T cells. FIG. 13D: Engulfed pHrodo-green-labeled REC-1 tumor fragments co-localize into Lyso-tracker red-labeled lysosomes.
Phagocytosis was assessed in co-culture assays of REC-1 cells with CER T cells. […] The percentage of pHrodo red-positive cells was determined by flow cytometry after 16 or 40 hours of co-culture. The localization of tumor fragments in CER T-cell lysosomal compartments was assessed in a separate experiment with REC-1 cells labeled with pHrodo green; following co-culture, all cells were labeled with Lyso-tracker red. Visualization of engulfment was performed by fluorescence microscopy. 1-way ANOVA with Dunnett's post hoc test was performed compared with untransduced T cells.

With “CER-1236: chimeric Tim4 receptor: Tim4 binding domain-CD28tm-CD28-CD3z-TLR2 TIR, SEQ ID NO:19; tested as transduced T cells” the “E7 TCR-T cell surface activation markers CD25 and CD69 upregulated” value (E7 TCR T cells; 24 hrs following co-culture, controls 23.1%) was 41.2%, the “percentage of dividing E7-TCR-T cells” value (E7 TCR T cells; by 6 days, controls 8%) was 44% and the “IFN-γ response with ibrutinib” value [1] was “enhances CER1236 T cell IFN-γ response”. For the same substance, the “cytokine production (granzyme B, TNFα, IL-6, IFNγ), combination with osimertinib” value (NSCLC H1975 cells) was “increased cytokine production” and the “anti-tumor effect / tumor burden” value (Jeko1 TMEM30A−/− cells) was “showed anti-tumor effect”.

For “CER-1234: chimeric Tim4 receptor: Tim4 binding domain-CD28tm-CD28-TLR2 TIR-CD3z, SEQ ID NO:18; tested as transduced T cells”, the “localization of internalized fragments” value (REC-1 cells; BTK inhibitor-primed REC-1 cells) was “internalized fragments were localized to lysosomal compartments” and the “engulfment of pHrodo red+ target cells” value (REC-1 cells; REC-1 pretreated 10 μM ibrutinib, 16 and 40 hours of co-culture) was “increased engulfment of pHrodo red+target cells relative to untransduced T cells”.
